What was measured:
Format in all cases: in vivo
[1] = tested on: anaesthetised, perfused rat stomach preparation; test: Inhibition of pentagastrin-stimulated gastric acid secretion (Ghosh and Schild preparation); conditions: i.v.
Method: The compounds were examined for their ability to inhibit pentagastrin-stimulated gastric acid secretion in the anaesthetised, perfused rat stomach preparation (Ghosh and Schild preparation). The compounds were administered intravenously.

conscious guinea pigs = test: Herxheimer test: protection against histamine aerosol induced bronchoconstriction; conditions: administered by aerosol or by oral administration, mean of several experiments
Method: • 1. The compounds were examined for their ability to inhibit 5-hydroxytryptamine or histamine induced bronchoconstriction in the anaesthetised, artifically respired guinea pig (Konzett-Rossler preparation). The compounds were administered intravenously. The results are shown in Table A. [formula] • 2. Compound 3 was also examined for its ability to protect conscious guinea pigs against bronchoconstriction induced by an histamine aerosol (Herxheimer test). In these experiments the compound was administered by aerosol or by oral administration. The results are the mean of several experiments. Compound 3 was active at 10 mg/kg.

rat = test: Anti-ulcer activity: inhibition of indomethacin induced gastric damage; conditions: gastric damage score 1-9; 50mg/kg orally 30 minutes prior to 15mg/kg indomethacin subcutaneously; sacrificed 4 hours later; vehicle 4.57 ± 0.69; p <0.01 (Mann Witney)
Method: Anti-ulcer activity was assessed by the inhibition of indomethacin induced gastric damage in the rat according to the method of Eleghe (1974) Israeli J. Med. Sci. 10 1451. Rats were starvedovernight given 15mg/kg indomethacin subcutaneously and sacrificed 4 hours later. Stomachs were reflated with n. saline, cut along the greater curvature pinned out and scored for gastric damage by the following system: • Score 1 - 3 - according to degree of erythema and slight haemorrhage. • Score 4 - 6 - according to degree of mucosal erosion. • Score 7 - 9 - according to depth of gastric damage.
Groups of 7 rats were used for each treatment and the test compound or vehicle were administered 30 minutes prior to giving the indomethacin. Dose of test compound was 50mg/kg orally and control groups receiving vehicle only were set up simultaneously. Mean values for each treatment were obtained using the above scoring system and the Mann Witney test applied for significance of difference between the values obtained with the treatments.

Row | Structure (SMILES) | inhibited gastric acid secretion at [1] [mg/kg] | active at (protection against bronchoconstriction induced by an histamine aerosol) (conscious guinea pigs) [mg/kg] | Test Mean Score ± S.E. of Mean (rat)
1 | CCCCC(C)C(C)(O)CCN1C(=O)CN(C)C(=O)C1CCCCCCC(=O)OC (stereo not shown) [Compound 3] | 0.2 | 10 | 0.71 ± 0.42 (p <0.01)
2 | COC(=O)CCCCCCC1C(=O)N[C@@H](C)C(=O)N1CCC(C)(O)C1CCCCC1 (stereo partly shown) [Compound 9] | 0.25 | – | –

Reference: EP0008186A1, “Cyclic diamides, a process for their preparation and their pharmaceutical compositions” (BEECHAM GROUP PLC, priority 1978, dated 1980)
